How the values were obtained:
Experiment in all cases: Kinase selectivity, scanMAX Kinase assay panel (DiscoverX), % control at 1 uM
Assay type in all cases: binding
[1] = target: T1, scanMAX Kinase assay panel (Homo sapiens, UniProt Q6ZN16); details: MAP3K15; 1 uM; read-out: Percent Control (%)
T1 construct: purchased DiscoverX
T1 sequence (Q6ZN16 1-1313): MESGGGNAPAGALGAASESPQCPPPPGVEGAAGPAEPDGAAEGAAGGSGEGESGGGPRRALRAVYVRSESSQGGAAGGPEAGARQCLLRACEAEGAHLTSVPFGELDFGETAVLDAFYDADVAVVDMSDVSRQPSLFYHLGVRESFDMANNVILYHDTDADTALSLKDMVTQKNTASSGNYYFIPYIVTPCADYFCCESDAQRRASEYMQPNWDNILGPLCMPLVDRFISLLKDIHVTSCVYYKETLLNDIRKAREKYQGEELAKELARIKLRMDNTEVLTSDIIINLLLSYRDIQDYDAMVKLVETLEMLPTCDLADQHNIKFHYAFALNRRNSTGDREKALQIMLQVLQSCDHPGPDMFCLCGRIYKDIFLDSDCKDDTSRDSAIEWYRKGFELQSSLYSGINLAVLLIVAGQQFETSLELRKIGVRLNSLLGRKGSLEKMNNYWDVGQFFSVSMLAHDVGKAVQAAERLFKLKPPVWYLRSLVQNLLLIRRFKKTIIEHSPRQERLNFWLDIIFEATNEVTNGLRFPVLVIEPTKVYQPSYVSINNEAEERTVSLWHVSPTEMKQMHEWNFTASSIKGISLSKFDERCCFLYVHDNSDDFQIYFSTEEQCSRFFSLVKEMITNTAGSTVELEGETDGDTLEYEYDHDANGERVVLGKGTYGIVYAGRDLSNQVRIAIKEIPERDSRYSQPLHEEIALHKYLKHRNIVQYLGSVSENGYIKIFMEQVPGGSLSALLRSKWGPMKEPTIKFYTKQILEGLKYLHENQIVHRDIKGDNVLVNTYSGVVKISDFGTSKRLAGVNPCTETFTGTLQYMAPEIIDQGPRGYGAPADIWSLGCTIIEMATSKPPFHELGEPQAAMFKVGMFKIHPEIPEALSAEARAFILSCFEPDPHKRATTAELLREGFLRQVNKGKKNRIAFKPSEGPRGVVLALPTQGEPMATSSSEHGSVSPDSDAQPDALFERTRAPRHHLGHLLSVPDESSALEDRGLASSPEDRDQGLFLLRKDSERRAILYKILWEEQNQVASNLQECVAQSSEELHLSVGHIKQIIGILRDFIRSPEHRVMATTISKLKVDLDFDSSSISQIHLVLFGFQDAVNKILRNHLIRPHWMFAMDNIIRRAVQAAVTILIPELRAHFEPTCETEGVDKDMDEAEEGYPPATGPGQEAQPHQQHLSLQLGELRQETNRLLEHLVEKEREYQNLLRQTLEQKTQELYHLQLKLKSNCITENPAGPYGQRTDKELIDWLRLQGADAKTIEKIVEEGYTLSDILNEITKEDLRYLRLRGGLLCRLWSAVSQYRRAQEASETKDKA
Outline: (§1)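 1 uM cpd (DMSO) per kinase; % ctrl = [cpd − pos ctrl]/[neg ctrl − pos ctrl] × 100; hit if <35.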

[2] = target: T2, scanMAX Kinase assay panel (Homo sapiens, UniProt P10721, L576P); details: KIT (L576P); 1 uM; read-out: Percent Control (%)
T2 construct: purchased DiscoverX
Outline: as §1

[3] = target: T3, scanMAX Kinase assay panel (Homo sapiens, UniProt Q12851); details: MAP4K2; 1 uM; read-out: Percent Control (%)
T3 construct: purchased DiscoverX
T3 sequence (Q12851 1-820): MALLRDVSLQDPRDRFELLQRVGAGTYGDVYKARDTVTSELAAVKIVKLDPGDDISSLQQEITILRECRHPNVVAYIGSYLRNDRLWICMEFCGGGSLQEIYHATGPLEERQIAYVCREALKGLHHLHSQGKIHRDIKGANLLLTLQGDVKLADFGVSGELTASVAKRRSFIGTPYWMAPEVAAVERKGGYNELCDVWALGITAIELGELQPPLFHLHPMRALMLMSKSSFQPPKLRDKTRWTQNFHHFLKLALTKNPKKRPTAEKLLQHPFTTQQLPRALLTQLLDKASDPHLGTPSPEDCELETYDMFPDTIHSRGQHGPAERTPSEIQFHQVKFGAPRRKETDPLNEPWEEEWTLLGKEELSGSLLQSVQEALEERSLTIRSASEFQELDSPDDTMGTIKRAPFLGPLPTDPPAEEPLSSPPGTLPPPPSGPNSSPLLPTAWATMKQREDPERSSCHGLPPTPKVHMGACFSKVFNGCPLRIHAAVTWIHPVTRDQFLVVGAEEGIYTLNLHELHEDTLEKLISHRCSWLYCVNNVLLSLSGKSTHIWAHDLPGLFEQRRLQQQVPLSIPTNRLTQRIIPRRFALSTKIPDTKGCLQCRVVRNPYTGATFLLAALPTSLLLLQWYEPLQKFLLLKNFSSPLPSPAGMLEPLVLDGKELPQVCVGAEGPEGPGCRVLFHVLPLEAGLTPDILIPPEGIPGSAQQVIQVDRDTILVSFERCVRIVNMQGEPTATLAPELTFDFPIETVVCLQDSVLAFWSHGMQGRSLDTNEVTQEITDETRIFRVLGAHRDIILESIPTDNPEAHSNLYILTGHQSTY
Outline: as §1

[4] = target: T4, scanMAX Kinase assay panel (Homo sapiens, UniProt Q16816); details: PHKG1; 1 uM; read-out: Percent Control (%)
T4 construct: purchased DiscoverX
Outline: as §1

[5] = target: T5, scanMAX Kinase assay panel (Homo sapiens, UniProt P46734); details: MEK3; 1 uM; read-out: Percent Control (%)
T5 construct: purchased DiscoverX
T5 sequence (P46734 1-347): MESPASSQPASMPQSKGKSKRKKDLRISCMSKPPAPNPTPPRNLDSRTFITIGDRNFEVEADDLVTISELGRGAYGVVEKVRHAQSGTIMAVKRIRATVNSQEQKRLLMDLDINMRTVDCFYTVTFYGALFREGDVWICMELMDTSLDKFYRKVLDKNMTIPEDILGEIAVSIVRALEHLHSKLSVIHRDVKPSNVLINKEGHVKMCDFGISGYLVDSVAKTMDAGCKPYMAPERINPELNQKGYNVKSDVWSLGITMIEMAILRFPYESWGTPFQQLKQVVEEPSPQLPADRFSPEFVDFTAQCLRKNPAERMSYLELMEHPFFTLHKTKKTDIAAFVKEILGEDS
Outline: as §1

T2 sequence (P10721 26-976 L576P): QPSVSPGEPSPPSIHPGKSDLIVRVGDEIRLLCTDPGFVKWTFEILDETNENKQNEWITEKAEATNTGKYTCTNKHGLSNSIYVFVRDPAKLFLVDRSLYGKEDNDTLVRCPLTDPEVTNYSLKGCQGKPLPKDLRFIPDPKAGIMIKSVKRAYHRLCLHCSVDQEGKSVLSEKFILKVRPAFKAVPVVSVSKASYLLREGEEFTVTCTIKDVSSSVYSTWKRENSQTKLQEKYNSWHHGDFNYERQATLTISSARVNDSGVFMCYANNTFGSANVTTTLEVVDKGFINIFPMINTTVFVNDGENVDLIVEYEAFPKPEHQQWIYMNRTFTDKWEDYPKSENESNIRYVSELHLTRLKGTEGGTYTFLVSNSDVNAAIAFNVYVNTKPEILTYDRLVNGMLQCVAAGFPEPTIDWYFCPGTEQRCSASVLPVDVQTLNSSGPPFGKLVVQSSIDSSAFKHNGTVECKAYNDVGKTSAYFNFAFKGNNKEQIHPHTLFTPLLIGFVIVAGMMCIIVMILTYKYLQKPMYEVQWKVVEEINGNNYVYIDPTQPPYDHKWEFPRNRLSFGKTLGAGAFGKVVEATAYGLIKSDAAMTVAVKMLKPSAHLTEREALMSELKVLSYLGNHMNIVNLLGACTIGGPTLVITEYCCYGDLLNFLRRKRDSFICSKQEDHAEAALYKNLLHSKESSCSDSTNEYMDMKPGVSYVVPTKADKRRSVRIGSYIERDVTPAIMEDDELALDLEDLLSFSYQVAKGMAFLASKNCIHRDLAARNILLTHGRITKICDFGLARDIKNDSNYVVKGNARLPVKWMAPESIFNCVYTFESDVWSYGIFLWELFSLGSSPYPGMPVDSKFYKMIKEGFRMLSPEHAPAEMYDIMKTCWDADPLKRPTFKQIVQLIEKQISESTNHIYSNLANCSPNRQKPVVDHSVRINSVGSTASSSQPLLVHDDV
T4 sequence (Q16816 whole entry): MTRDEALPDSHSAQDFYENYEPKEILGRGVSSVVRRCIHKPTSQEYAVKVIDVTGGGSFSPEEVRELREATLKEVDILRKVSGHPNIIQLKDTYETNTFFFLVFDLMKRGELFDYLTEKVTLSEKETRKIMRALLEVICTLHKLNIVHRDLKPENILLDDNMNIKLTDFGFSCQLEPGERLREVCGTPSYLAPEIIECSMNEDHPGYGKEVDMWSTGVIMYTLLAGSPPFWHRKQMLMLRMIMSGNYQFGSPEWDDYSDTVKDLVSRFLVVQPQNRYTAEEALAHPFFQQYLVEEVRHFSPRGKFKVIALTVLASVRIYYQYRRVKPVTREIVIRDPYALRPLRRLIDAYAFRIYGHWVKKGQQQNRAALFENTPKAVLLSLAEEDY

| Structure (SMILES) | remaining binding at 1 µM [1] [%] | remaining binding at 1 µM [2] [%] | remaining binding at 1 µM [3] [%] | remaining binding at 1 µM [4] [%] | remaining binding at 1 µM [5] [%] |
| --- | --- | --- | --- | --- | --- |
| Cc1ccc(C(=O)Nc2ccc(CN3CCN(C)CC3)c(C(F)(F)F)c2)cc1C#Cc1cnc2c(Nc3cnn(C)c3)cccn12 [Example 1, 4-methyl-3-((8-((1-methyl-1H-pyrazol-4-yl)amino)imidazo[1,2-a]pyridin-3-yl)ethynyl)-N-(4-((4-methylpiperazin-1-yl)methyl)-3-(trifluoromethyl)phenyl)benzamide] | 72 | 0 | 1 | 85 | 81 |
| Cc1cn(-c2cc(NC(=O)c3ccc(C)c(C#Cc4cnc5c(Nc6cnn(C)c6)cccn45)c3)cc(C(F)(F)F)c2)cn1 [Example 12, 4-methyl-N-(3-(4-methyl-1H-imidazol-1-yl)-5-(trifluoromethyl)phenyl)-3-((8-((1-methyl-1H-pyrazol-4-yl)amino)imidazo[1,2-a]pyridin-3-yl)ethynyl)benzamide] | 100 | 17 | 98 | 84 | 100 |
| Cc1ccc(NC(=O)C2(C(=O)Nc3ccc(F)cc3)CC2)cc1C#Cc1cnc2c(Nc3cnn(C(C)C)c3)cccn12 [Example 78] | 98 | 0 | 100 | 88 | 96 |
